From patent EP1100483B1, “GLUCOCORTICOID-SELECTIVE ANTI-INFLAMMATORY AGENTS” (Abbott Laboratories, priority 1998, dated 2000)

What follows are molecules tested against T1, minerocorticoid receptor (MR) (Homo sapiens, UniProt P08235) (assay: soluble minerocorticoid receptor (MR) binding assay, [3H]-aldosterone competition). Conditions: 3-4 nM [3H]-aldosterone, 4 °C for 18 hours; Cheng-Prusoff.
T1 construct: made in house; host or cells: SF21 insect cells (baculovirus)
T1 sequence (P08235 1-984): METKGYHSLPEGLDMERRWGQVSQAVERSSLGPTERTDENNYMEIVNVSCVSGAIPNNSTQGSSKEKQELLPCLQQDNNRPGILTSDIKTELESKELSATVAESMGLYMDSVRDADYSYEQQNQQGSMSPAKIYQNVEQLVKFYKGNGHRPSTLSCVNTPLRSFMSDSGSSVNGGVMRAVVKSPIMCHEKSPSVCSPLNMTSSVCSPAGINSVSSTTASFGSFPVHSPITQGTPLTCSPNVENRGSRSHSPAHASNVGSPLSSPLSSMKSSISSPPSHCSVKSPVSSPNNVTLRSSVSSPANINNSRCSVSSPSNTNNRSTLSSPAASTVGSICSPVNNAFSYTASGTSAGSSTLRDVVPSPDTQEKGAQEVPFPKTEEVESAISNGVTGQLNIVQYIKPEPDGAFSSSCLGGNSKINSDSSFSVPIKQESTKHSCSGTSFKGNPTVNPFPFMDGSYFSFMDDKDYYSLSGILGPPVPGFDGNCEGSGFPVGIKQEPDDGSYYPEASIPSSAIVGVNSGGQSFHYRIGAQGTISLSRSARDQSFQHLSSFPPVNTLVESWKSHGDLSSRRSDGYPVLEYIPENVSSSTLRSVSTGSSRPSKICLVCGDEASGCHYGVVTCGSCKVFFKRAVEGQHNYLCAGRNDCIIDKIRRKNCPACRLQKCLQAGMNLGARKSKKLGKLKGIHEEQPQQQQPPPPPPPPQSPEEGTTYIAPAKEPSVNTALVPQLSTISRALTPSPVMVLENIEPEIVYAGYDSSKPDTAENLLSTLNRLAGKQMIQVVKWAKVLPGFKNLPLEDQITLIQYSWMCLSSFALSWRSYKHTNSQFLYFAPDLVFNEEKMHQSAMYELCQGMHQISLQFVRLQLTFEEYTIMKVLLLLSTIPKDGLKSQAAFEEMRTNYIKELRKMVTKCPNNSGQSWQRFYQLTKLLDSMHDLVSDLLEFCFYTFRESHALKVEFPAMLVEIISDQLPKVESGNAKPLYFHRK
Excerpt: For soluble minerocorticoid receptor (MR) binding assays, [^3H]-aldosterone (75-85 Ci/mmol) was purchased from New England Nuclear (Boston, MA), aldosterone was purchased from Sigma Chemical Co. (St. Louis, MO), CHAPS and DTT were purchased from Boehringer Mannheim GmbH (W. Germany) and all other reagents were purchased from Sigma.
The methods concerning growth, purification, and assays of recombinant viruses followed the protocol outlined by Summers, M.D., Smith, G.E., A Manual of Methods for Baculovirus Vectors and Insect Cell Culture Procedures, Tex. Agric. Exp. Stn. [Bull], 1987, No. 155, hereby incorporated by reference. The recombinant plasmids were cotransfected into SF21 cells with wild type AcNPV DNA, and the recombinant viruses were plaque purified.
A receptor extract was prepared from the baculovirus system, and aliquots were stored at -80 °C until used. Typical protein concentrations for these extracts were between 10 and 20 mg/ml. Stock solutions of aldosterone or other competing compounds were prepared as either 5 mM ethanol or DMSO stock solutions and serial dilutions were carried out in 1:1 DMSO-ethanol. The assay buffer consisted of the following: 25 mM sodium phosphate, 10 mM potassium fluoride, 20 mM sodium molybdate, 10% glycerol, 2 mM DTT and 0.25 mM CHAPS, pH=7.3 at room temperature.
Receptor assays were performed with a final volume of 250 µL containing from 50-75 µg of extract protein, plus 3-4 nM [^3H]-aldosterone and varying concentrations of competing ligand (0 to 10,000 nM). Assays were set up using a 96-well minitube system and incubations were carried out at 4 °C for 18 hours. Equilibrium under these conditions of buffer and temperature was achieved by 6-8 hours. Nonspecific binding was defined as that binding remaining in the presence of 1000 nM unlabeled aldosterone. At the end of the incubation period, 200 µL of 6.25% hydroxyapatite was added in wash buffer (binding buffer in the absence of DTT and CHAPS). Specific ligand binding to receptor was determined by a hydroxyapatite-binding assay according to the protocol outlined by Wecksler, W.R., Norman, A.W., An Hydroxylapatite Batch Assay for the Quantitation of 1α, 25-Dihydroxyvitamin D3-Receptor Complexes, Anal. Biochem. 1979, 92, 314-323, hereby incorporated by reference. Hydroxyapatite absorbs the receptor-ligand complex, allowing for the separation of bound from free radiolabeled ligand. The mixture was vortexed, incubated for 10 minutes at 4 °C, centrifuged, and the supernatant was removed. The hydroxyapatite pellet was washed twice more with the wash buffer. The amount of receptor-ligand complex was determined by liquid scintillation counting of the hydroxyapatite pellet after the addition of […] EcoScint A scintillation cocktail from National Diagnostics (Atlanta, GA.).
After correcting for nonspecific binding, IC50 values were determined. […] The IC50 values were determined graphically from a log-logit plot of the data. […] Standards are included in each assay and resulting Ki values are determined by use of a modified Cheng-Prusoff equation and used to calculate Ki values for "unknown analogs" as outlined by DeBlasi, A., O'Reilly, K., Motulsky, H.J., Calculating Receptor Number from Binding Experiments Using Same Compound As Radioligand and Competitor, TIPS 1989, 10.227-229, hereby incorporated by reference.

Compound | Ki [nM]
CC(=O)OCCN(C)c1ccc(C(c2ccc(N(C)CCOC(C)=O)cc2)c2cc([N+](=O)[O-])ccc2Cl)cc1 [Example 31, 4',4" bis(N-(2-acetoxyethyl) N-methylamino)-2-chloro-5-nitrotriphenylmethane] | 3910
CNc1ccc(C(c2ccc(N(C)CCOC(C)=O)cc2)c2cc([N+](=O)[O-])ccc2Cl)cc1 (stereo not shown) [Example 49, 4'-methylamino-4"-(N-(2-acetoxyethyl)-N-methylamino)-2-chloro-5-nitrotriphenylmethane] | 3910
CN(CCO)c1ccc(C(c2ccc(N(C)CCO)cc2)c2cc([N+](=O)[O-])ccc2Cl)cc1 [Example 32, 4',4" bis(N-(2-hydroxyethyl) N-methylamino)-2-chloro-5-nitrotriphenylmethane] | 3910
CN(C)c1ccc(C(c2ccc(N(C)C)cc2)c2cc(Cl)ccc2Cl)cc1 [Example 24, 4',4" bis(dimethylamino)-2,5-dichlorotriphenylmethane] | 2900
CC(=O)OCCN(C)c1ccc(C(c2ccc(N(C)C)cc2)c2cc([N+](=O)[O-])ccc2Cl)cc1 (stereo not shown) [Example 51, 4'-dimethylamino-4"-(N-methyl-N-(2-acetoxyethyl)amino)-2-chloro-5-nitrotriphenylmethane] | > 10000
CN(C)c1ccc(C(c2ccc(N(C)C)cc2)c2cc([N+](=O)[O-])ccc2Cl)cc1 [Example 1, 4',4" bis(dimethylamino)-2-chloro-5-nitrotriphenylmethane] | 2900
CN(C)c1ccc(C(c2ccc(N(C)CCO)cc2)c2cc([N+](=O)[O-])ccc2Cl)cc1 (stereo not shown) [Example 42, 4'-dimethylamino-4"-(N-methyl-N-(2-hydroxyethyl)amino)-2-chloro-5-nitrotriphenylmethane] | 2900
CNc1ccc(C(c2ccc(NC)cc2)c2cc([N+](=O)[O-])ccc2Cl)cc1 [Example 23, 4',4" bis(methylamino)-2-chloro-5-nitrotriphenylmethane] | > 10000
O=[N+]([O-])c1ccc(Cl)c(C(c2ccc(NCc3ccccc3)cc2)c2ccc(NCc3ccccc3)cc2)c1 [Example 36, 4',4" bis(N-benzylamino)-2-chloro-5-nitrotriphenylmethane] | 2900
CN(C)c1ccc(C(Sc2ccccc2)c2cc([N+](=O)[O-])ccc2Cl)cc1 (stereo not shown) [Example 54, phenyl-[(4'-dimethylaminophenyl)-(2-chloro-5-nitrophenyl)methyl]thioether] | 2900
CNc1ccc(C(c2ccc(N(C)C)cc2)c2cc([N+](=O)[O-])ccc2Cl)cc1 (stereo not shown) [Example 39, 4'-dimethylamino-4"-methylamino-2-chloro-5-nitrotriphenylmethane] | 2900
CN(C)c1ccc(C(Oc2ccccc2)c2cc([N+](=O)[O-])ccc2Cl)cc1 (stereo not shown) [Example 52, phenyl-[(4'-dimethylaminophenyl)-(2-chloro-5-nitrophenyl)methyl] ether] | 3110
CNc1ccc(C(c2ccc(NC)cc2)c2cc(Cl)ccc2Cl)cc1 [Example 27, 4',4" bis(methylamino)-2,5-dichlorotriphenylmethane] | > 10000
